Target: Na+/K+ ATPase
Experiment: colorimetric ATPase assay
Type: biochemical, Sus scrofa

Row | SMILES | IC50 [µM]
1 | C[C@@H]1O[C@@H](O[C@H]2CC[C@@]3(C)[C@H](CC[C@@H]4[C@@H]3CC[C@]3(C)[C@@H](C5=CC(=O)OC5)CC[C@]43O)C2)[C@H](O)[C@H](O)[C@H]1O [D6-MA] | 1.1
2 | C[C@H]1O[C@@H](O[C@H]2[C@@H](O)C[C@H](O[C@H]3[C@@H](O)C[C@H](O[C@H]4CC[C@@]5(C)[C@H](CC[C@@H]6[C@@H]5CC[C@]5(C)[C@@H](C7=CC(=O)OC7)CC[C@]65O)C4)O[C@@H]3C)O[C@@H]2C)C[C@H](O)[C@@H]1O [Digitoxin] | 2.8

Reference: PMC3254807 (2011)
